One test has as its target DPP1 in HL-60 cells (Homo sapiens, UniProt P53634). The test is described as follows: DPP1 Cell IC50 assay. Further details: host or cells: HL-60 cells. The settings on record: 60 min pre-incubation, H-Gly-Phe-AFC substrate, average of n runs. It counts as cell-based. How it is done:
Example 99. DPP1 Cell IC50 assay
HL-60 cells (ATCC; Manassas, VA) were maintained in RPMI-1640 supplemented with 20% heat-inactivated FBS and 1× Antibiotic Antimycotic (Cytiva; Marlborough, MA). Media was changed every three to four days and cells were not allowed to exceed 1×10^6 cells per mL. Prior to assay, cells were collected by centrifugation at 500 rcf for 3 minutes, resuspended in PBS and counted. Cells were diluted in PBS to a concentration of 5×10^5 live cells per mL and transferred to black 96-well plates for assay, 60 μL per well. Test articles were diluted in PBS plus 0.5% DMSO, and 20 μL was added to each assay well. Compound was allowed to pre-incubate with cells with gentle shaking at 100 rpm for 60 minutes at 37° C. in a cell culture incubator maintained at 5% CO2, after which 20 μL of 500 μM H-Gly-Phe-AFC substrate (MP Biomedicals; Solon, OH) was added to each well. Plates were returned to the incubator with shaking at 100 rpm for 30 minutes, after which fluorescence was measured at Excitation/Emission 400/505 nm. % Inhibition was calculated from RFU values compared to control cell wells that received only PBS plus 0.5% DMSO. IC50 values for each compound were calculated via the XLFit (IDBS Version 5.3.1.3) Add-On to Microsoft Excel using the four parameter fit equation y=(A+((B−A)/(1+((C/x)^D)))), which appears as equation number 205 (4 Parameter Logistic Model or Sigmoidal Dose-Response Model) in XLFit. IC50 was defined as the compound concentration at which 50% of enzyme activity was inhibited when compared to the no-compound control.

The target of the next test is human DPP1 enzyme (Homo sapiens, UniProt P53634). The test is described as follows: Human DPP1 Enzyme IC50 Assay. Further details: was first proteolytically processed into its mature form using recombinant human cathepsin L; purchased R&D Systems. It counts as biochemical. The gist of the method:
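Recombinant human DPP1, pre-activated with cathepsin L (pH 4.5), was preincubated with compound 10 min at 37 °C in MES pH 6.0, 50 mM NaCl, 5 mM DTT, 1% DMSO. Cleavage of 400 μM (final) H-Gly-Arg-AMC followed by fluorescence (350/450 nm) over 90 min at 37 °C; IC50 from four-parameter logistic fit versus no-compound control.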

Setting [1] is: read-out: Avg. IC50 (DPP1 Cell IC50 value ranges).
Setting [2] is: activated recombinant human DPP1, 400 μM H-Gly-Arg-AMC, 10 minutes pre-incubation at 37° C., pH 6.0, average of n runs, read-out: Avg. IC50 (Human DPP1 enzyme IC50 value ranges).

Molecules are shown by their SMILES. pIC50: −log10 of the molar value. Where two headings read alike, the source gives them in different places.

human DPP1 enzyme, sequence (P53634 25-134 limits assumed): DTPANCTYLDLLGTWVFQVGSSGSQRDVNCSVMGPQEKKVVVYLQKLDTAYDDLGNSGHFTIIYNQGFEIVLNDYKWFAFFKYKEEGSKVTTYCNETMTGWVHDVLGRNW
human DPP1 enzyme, sequence (P53634 231-394 limits assumed): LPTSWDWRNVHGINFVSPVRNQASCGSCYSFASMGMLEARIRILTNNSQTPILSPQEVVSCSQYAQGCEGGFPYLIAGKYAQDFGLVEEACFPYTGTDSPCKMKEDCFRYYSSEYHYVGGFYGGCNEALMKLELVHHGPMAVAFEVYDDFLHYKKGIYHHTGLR
human DPP1 enzyme, sequence (P53634 395-463 limits assumed): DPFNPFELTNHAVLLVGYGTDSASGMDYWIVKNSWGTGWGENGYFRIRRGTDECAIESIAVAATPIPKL
DPP1 in HL-60 cells, sequence (P53634 25-463): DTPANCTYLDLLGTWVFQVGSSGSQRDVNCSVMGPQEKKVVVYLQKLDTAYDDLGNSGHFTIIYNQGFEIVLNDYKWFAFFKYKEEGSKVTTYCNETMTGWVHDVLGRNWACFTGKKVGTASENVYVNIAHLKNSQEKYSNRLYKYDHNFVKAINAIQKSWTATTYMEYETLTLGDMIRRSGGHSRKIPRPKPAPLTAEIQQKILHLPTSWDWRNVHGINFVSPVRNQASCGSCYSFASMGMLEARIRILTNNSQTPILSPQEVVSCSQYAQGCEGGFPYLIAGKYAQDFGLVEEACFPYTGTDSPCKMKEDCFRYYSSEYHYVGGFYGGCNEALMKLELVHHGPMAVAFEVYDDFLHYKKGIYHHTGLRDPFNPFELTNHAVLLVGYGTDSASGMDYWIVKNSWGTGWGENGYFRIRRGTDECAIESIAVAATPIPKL

For orientation: pIC50 means the IC50 on a negative log10 scale, so that one unit is a factor of ten. Consider `Cn1c(=O)oc2ccc3c(c21)COc1cc(CC(C#N)NC(=O)[C@@H]2CNCCCO2)c(F)cc1-3` (mixture of isomers) [Compound C2, (2S)—N-(1-cyano-2-(8-fluoro-3-methyl-2-oxo-3,4-dihydro-2H-benzo[3,4]isochromeno[8,7-d]oxazol-7-yl)ethyl)-1,4-oxazepane-2-carboxamide], for which the pIC50 on DPP1 in HL-60 cells (setting [1]) was < 8.60; at human DPP1 enzyme (setting [2]), < 7.82.

In the case of `N#C[C@H](Cc1ccc2c(c1)OCc1ccc(C3CCNC3)cc1-2)NC(=O)[C@@H]1CNCCCO1` (stereo partly drawn) [Compound B1, (2S)—N-[(1S)-1-cyano-2-[9-(pyrrolidin-3-yl)-6H-benzo[c]chromen-3-yl]ethyl]-1,4-oxazepane-2-carboxamide], the results for the pIC50 on DPP1 in HL-60 cells (Avg. IC50 (DPP1 Cell IC50 value ranges)) and on human DPP1 enzyme were < 8.60 and < 7.82, respectively.

`CO[C@H]1CCO[C@H](C(=O)N[C@H](C#N)Cc2ccc(-c3ccc4oc(=O)n(C)c4c3)s2)CNC1` [Compound F3, (2S,6S)—N-[(1S)-1-cyano-2-[5-(3-methyl-2-oxo-1,3-benzoxazol-5-yl)thiophen-2-yl]ethyl]-6-methoxy-1,4-oxazocane-2-carboxamide]: the pIC50 is < 8.60 at DPP1 in HL-60 cells (setting [1]) and < 7.82 at human DPP1 enzyme (setting [2]).

`N#C[C@H](Cc1ccc(-c2ccc3c(c2)[C@]2(CCCN(C#N)C2)SC3)cc1)NC(=O)[C@@H]1CNCCCO1` [Compound I15]: the values for the pIC50 at DPP1 in HL-60 cells (setting [1]) and at human DPP1 enzyme (setting [2]) were < 8.60 and < 7.82, respectively.

For the molecule `N#C[C@H](Cc1ccc(-c2ccc3c(c2)[C@]2(CCCN(c4nccs4)C2)COC3)cc1)NC(=O)[C@@H]1CNCCCO1` [Compound I20], the pIC50 on DPP1 in HL-60 cells (setting [1]) was < 8.60; on human DPP1 enzyme (setting [2]), < 7.82.

Regarding `CO[C@@H]1CCNC[C@@H](C(=O)N[C@H](C#N)Cc2ncc(-c3ccc4c(F)nn(C)c4c3)s2)OC1` [Compound A36, (2S,7R)—N-[(1S)-1-cyano-2-[5-(3-fluoro-1-methylindazol-6-yl)-1,3-thiazol-2-yl]ethyl]-7-methoxy-1,4-oxazocane-2-carboxamide], the pIC50 at DPP1 in HL-60 cells (setting [1]) is < 8.60; at human DPP1 enzyme (setting [2]), < 7.82.

As for `N#C[C@H](Cc1ccc(-c2ccc3c(c2)[C@]2(CCCN(c4ccsc4)C2)SC3)cc1)NC(=O)[C@@H]1CNCCCO1` [Compound I13], the values for the pIC50 on DPP1 in HL-60 cells (setting [1]) and on human DPP1 enzyme (setting [2]) were < 8.60 and < 7.82, respectively.

With `CN1CCCc2ncc(-c3ccc(C[C@@H](C#N)NC(=O)[C@@H]4CNCCCO4)cc3)cc21` [Compound A40, (2S)—N-[(1S)-1-cyano-2-[4-(5-methyl-7,8-dihydro-6H-1,5-naphthyridin-3-yl)phenyl]ethyl]-1,4-oxazepane-2-carboxamide], the values for the pIC50 on DPP1 in HL-60 cells (setting [1]) and at human DPP1 enzyme (setting [2]) were < 8.60 and < 7.82, respectively.

Regarding `COC1CO[C@H](C(=O)N[C@H](C#N)Cc2ccc(-c3ccc4c(c3)C3(CC4)CCN(C)CC3)cc2F)CNC1C` (stereo partly drawn) [Compound E6, (2S)—N-[(1S)-1-cyano-2-(2-fluoro-4-{1′-methyl-2,3-dihydrospiro[indene-1,4′-piperidin]-6-yl}phenyl)ethyl]-6-methoxy-5-methyl-1,4-oxazepane-2-carboxamide], the values for the pIC50 on DPP1 in HL-60 cells (setting [1]) and at human DPP1 enzyme (setting [2]) were < 8.60 and > 8.30, respectively.

Take `CO[C@H]1CCO[C@H](C(=O)N[C@H](C#N)Cc2ccc(-c3cc4c(C)nc(C)cn4c3)cc2)CNC1` [Compound A42, (2S,6S)—N-[(1S)-1-cyano-2-(4-{1,3-dimethylpyrrolo[1,2-a]pyrazin-7-yl}phenyl)ethyl]-6-methoxy-1,4-oxazocane-2-carboxamide]: the pIC50 at DPP1 in HL-60 cells (setting [1]) is 8.60 to 9.00; on human DPP1 enzyme (setting [2]), < 7.82.

In the case of `CO[C@@H]1CCNC[C@@H](C(=O)N[C@H](C#N)Cc2ccc(-c3cc4c(C)nc(C)cn4c3)s2)OC1` [Compound A34, (2S,7R)—N-[(1S)-1-cyano-2-(5-{1,3-dimethylpyrrolo[1,2-a]pyrazin-7-yl}thiophen-2-yl)ethyl]-7-methoxy-1,4-oxazocane-2-carboxamide], the values for the pIC50 at DPP1 in HL-60 cells (setting [1]) and at human DPP1 enzyme (setting [2]) were 8.60 to 9.00 and < 7.82, respectively.

For the molecule `Cn1c(=O)ccc2ncc(-c3ccc(C[C@@H](C#N)NC(=O)[C@@H]4CNCCCO4)cc3)cc21` [Compound A18, (2S)—N-[(1S)-1-cyano-2-[4-(5-methyl-6-oxo-1,5-naphthyridin-3-yl)phenyl]ethyl]-1,4-oxazepane-2-carboxamide], the pIC50 was < 8.60 on DPP1 in HL-60 cells (setting [1]) and < 7.82 at human DPP1 enzyme (setting [2]).

With `COc1ccc(-c2ccc(C[C@@H](C#N)NC(=O)[C@@H]3CNCCCO3)cc2)cc1-n1cnnc1` [Compound 31, (2S)—N-[(1S)-1-cyano-2-[4′-methoxy-3′-(1,2,4-triazol-4-yl)-[1,1′-biphenyl]-4-yl]ethyl]-1,4-oxazepane-2-carboxamide], the pIC50 was < 8.60 at DPP1 in HL-60 cells (setting [1]) and < 7.82 on human DPP1 enzyme (setting [2]).

For the molecule `CO[C@H]1CCO[C@H](C(=O)N[C@H](C#N)Cc2ccc(-c3ccc4c(n3)CCCN4)cc2F)CNC1` [Compound A49, (2S,6S)—N-[(1S)-1-cyano-2-[2-fluoro-4-(5,6,7,8-tetrahydro-1,5-naphthyridin-2-yl)phenyl]ethyl]-6-methoxy-1,4-oxazocane-2-carboxamide], the pIC50 is < 8.60 on DPP1 in HL-60 cells (setting [1]) and 7.82 to 8.30 at human DPP1 enzyme (setting [2]).

With `N#C[C@H](Cc1ccc(-c2ccc3c(c2)C2(CN(C4COC4)C2)OC3=O)cc1)NC(=O)[C@@H]1CNCCCO1` [Compound 27, (2S)—N-[(1S)-1-cyano-2-{4-[1-(oxetan-3-yl)-3′-oxospiro[azetidine-3,1′-[2]benzofuran]-6′-yl]phenyl}ethyl]-1,4-oxazepane-2-carboxamide], the pIC50 at DPP1 in HL-60 cells (setting [1]) was < 8.60; on human DPP1 enzyme (setting [2]) it was < 7.82.

As for `CO[C@@H]1CNC[C@@H](C(=O)N[C@H](C#N)Cc2ccc(-c3ccc4nnn(C)c4c3)cc2)OC1` [Compound H12-B], the results for the pIC50 on DPP1 in HL-60 cells (setting [1]) and on human DPP1 enzyme (setting [2]) were 8.60 to 9.00 and > 8.30, respectively.

In the case of `N#C[C@H](Cc1ccc(-c2ccc3c(c2)C2(CCN(C4CC4)CC2)SCC3)cc1)NC(=O)[C@@H]1CNCCCO1` [Compound I7], the results for the pIC50 on DPP1 in HL-60 cells (setting [1]) and at human DPP1 enzyme (setting [2]) were < 8.60 and < 7.82, respectively.

As for `Cn1c(=O)oc2cc3c(cc21)-c1cc(F)c(CC(C#N)NC(=O)[C@@H]2CNCCCCO2)cc1OC3` (single isomer, unassigned) [Compound C6], the figures for the pIC50 on DPP1 in HL-60 cells (setting [1]) and on human DPP1 enzyme (setting [2]) were < 8.60 and < 7.82, respectively.

`CO[C@H]1CNC[C@@H](C(=O)N[C@H](C#N)Cc2ccc(-c3cc4c(C)nc(C)cn4c3)cc2F)OC1` [Compound A88-B]: the values for the pIC50 at DPP1 in HL-60 cells (setting [1]) and at human DPP1 enzyme (setting [2]) were > 9.00 and > 8.30, respectively.

With `Cn1nc(F)c2ccc(-c3ccc(C[C@@H](C#N)NC(=O)[C@@H]4CNCC[C@@H](F)CO4)cc3)cc21` [Compound A161], the results for the pIC50 at DPP1 in HL-60 cells (setting [1]) and on human DPP1 enzyme (setting [2]) were < 8.60 and < 7.82, respectively.

On to `N#C[C@H](Cc1ccc(-c2cnn([C@@H]3CCOC3)c2)cc1)NC(=O)[C@@H]1CNCCCO1` [Compound D4, (2S)—N-[(1S)-1-cyano-2-(4-{1-[(3R)-oxolan-3-yl]pyrazol-4-yl}phenyl)ethyl]-1,4-oxazepane-2-carboxamide], for which the pIC50 on DPP1 in HL-60 cells (setting [1]) is < 8.60; on human DPP1 enzyme (setting [2]) it was < 7.82.

For the molecule `Cc1sc(-c2ccc(C[C@@H](C#N)NC(=O)[C@@H]3CNCCCO3)cc2)nc1-c1cc[nH]c(=O)c1` [Compound D9, (2S)—N-[(1S)-1-cyano-2-{4-[5-methyl-4-(2-oxo-1H-pyridin-4-yl)-1,3-thiazol-2-yl]phenyl}ethyl]-1,4-oxazepane-2-carboxamide], the pIC50 at DPP1 in HL-60 cells (setting [1]) was < 8.60; on human DPP1 enzyme (setting [2]), < 7.82.

As for `N#C[C@H](Cc1ccc(-c2cc3c(F)nccn3c2)cc1)NC(=O)[C@@H]1CNCCCO1` [Compound A66], the figures for the pIC50 at DPP1 in HL-60 cells (setting [1]) and on human DPP1 enzyme (setting [2]) were < 8.60 and < 7.82, respectively.

Turning to `CO[C@@H]1CCNC[C@@H](C(=O)NC(C#N)Cc2cc3cc(-c4cc5c(C)nc(C)cn5c4)ccc3s2)OC1` (single isomer, unassigned) [Compound A52], the pIC50 at DPP1 in HL-60 cells (setting [1]) is < 8.60; at human DPP1 enzyme (setting [2]), < 7.82.

For `N#C[C@H](Cc1ccc(-c2cnc3c(c2)COCCN3)cc1)NC(=O)[C@@H]1CNCCCO1` [Compound A9, (2S)—N-[(1S)-1-cyano-2-(4-{1H,2H,3H,5H-pyrido[2,3-e][1,4]oxazepin-7-yl}phenyl)ethyl]-1,4-oxazepane-2-carboxamide], the pIC50 on DPP1 in HL-60 cells (setting [1]) is < 8.60; at human DPP1 enzyme (setting [2]), < 7.82.

On to `C[C@@H]1NC[C@@H](C(=O)N[C@H](C#N)Cc2cnc(-c3ccc4c(F)nn(C)c4c3)s2)OC[C@@H]1O` [Compound A171], for which the results for the pIC50 at DPP1 in HL-60 cells (setting [1]) and on human DPP1 enzyme (setting [2]) were < 8.60 and < 7.82, respectively.

With `N#C[C@H](Cc1ccc(-c2cc3cnccn3c2)cc1)NC(=O)[C@@H]1CNCCCO1` [Compound A54], the pIC50 at DPP1 in HL-60 cells (setting [1]) was < 8.60; on human DPP1 enzyme (setting [2]), < 7.82.

These data come from US20260008760A1, “DIPEPTIDYL PEPTIDASE 1 INHIBITORS AND USES THEREOF” (Insmed Incorporated, priority 2024, published 2026).
